Source: patent US12365658B2, “Benzothia(di)azepine compounds and their use as bile acid modulators” (Albireo AB, priority 2021, dated 2025)

Test system: Caco-2 cells
Assay: Bidirectional permeability assay (Caco-2 cells)
Type: in vitro ADME
Conditions: 10 μM in FaSSIF buffer, 120 minutes; for Permeability (Caco-2) Papp A2B: absorptive direction (A2B); for Permeability (Caco-2) Papp B2A: secretory direction (B2A)
Procedure: Bidirectional Permeability Assay (Caco-2 Cells)
Caco-2 cells (Evotec) were seeded at a density of 70,000 cells/well in Millicell® 24-well cell culture insert plates and maintained in an incubator (37° C., 5% CO2, 95% RH) for 21 days with media change on alternate days.
Stock solutions (10 mM) of the test compounds, atenolol (low permeability marker), propranolol (high permeability marker) and digoxin (substrate for P-gp transport pathway) were prepared in dimethylsulfoxide (DMSO). An intermediate stock solution (1 mM) was prepared by diluting 10 μL of 10 mM master stock solution with 90 μL of neat DMSO. A working stock solution (10 μM) was prepared by diluting 50 μL of 1 mM with 4950 μL of FaSSIF buffer. Post addition of compounds to the FaSSIF, samples were subjected to sonication for 2 hours, and centrifuged at 4000 RPM for 30 minutes at 37° C. The 4 mL of resultant supernatant was directly used in the assay. The final DMSO concentration in the transport experiments was 1%.
On the day of assay, Caco-2 monolayers were washed twice with transport buffer (HBSS, pH 7.4) and pre-incubated for 30 min (37° C., 5% CO2, 95% RH) in an incubator. The electrical resistance of the monolayers was measured with a Millicell®-ERS system. Monolayers with trans-epithelial electrical resistance (TEER) values greater than 350 ohm·cm^2 were selected for the assay.
The assay was conducted in absorptive direction (A2B) and secretory (B2A) directions. Transport experiments were initiated by addition of transport assay buffer (FaSSIF buffer prepared in HBSS) consisting of compounds to the donor compartment (apical chamber A-B; basolateral chamber B-A) in duplicate (n=2) wells. Drug free HBSS buffer (pH 7.4) containing 1% bovine serum albumin (BSA) was introduced to the receiver (A-B-basolateral; B-A-Apical) compartments. The volumes of apical and basolateral compartments were 0.4 and 0.8 mL, respectively. After adding dosing solution, plates were incubated in an incubator for 120 minutes at 37° C. After 120 minutes, donor and receiver samples were collected and matrix matched (1:1, 30 μL study sample+30 μL blank buffer) with the opposite buffer. Dosing samples matrix matched (1:1, 30 μL study sample+30 μL blank buffer) with the opposite buffer. Samples were processed by adding acetonitrile containing internal standard (60 μL study sample+200 μL acetonitrile containing internal standard-Tolbutamide, 500 ng/mL). Samples were vortexed and centrifuged at 4000 rpm for 10 minutes. The obtained supernatant (100 μL) was diluted with 100 μL of water and transferred to fresh 96 well plates. The concentration of compounds in the samples was analyzed by liquid chromatography tandem mass spectrometry (LC-MS/MS) method using discovery grade bio-analytical method, as applicable.
The mean apparent permeability (Papp, ×10^−6 cm/sec) of the test compounds, atenolol, propranolol and digoxin were calculated as follows:
where dq/dt=rate of transport (rate of transport of compound in the receiver compartment), C0=initial concentration in the donor compartment, A=surface area of the effective filter membrane.

Row | Permeability (Caco-2) Papp A2B [cm/s] | Permeability (Caco-2) Papp B2A [cm/s] | Compound
1 | 8.6e-06 | 1.59e-05 | CCCCC1CN(c2ccccc2)c2cc(SC)c(OCC(C)(OC)C(=O)O)cc2S(=O)(=O)N1C (single isomer, unassigned) [24, diastereomer 1]
2 | 1.63e-05 | 2.4e-05 | CCCCC1CN(c2ccccc2)c2cc(SC)c(OCC(C)(OC)C(=O)O)cc2S(=O)(=O)N1C (single isomer, unassigned) [24, diastereomer 2]
